Test results reported in PubChem BioAssay (NCI).
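Results reflect a 48-hour exposure of cells in 96-well plates to compound at five concentrations. TGI denotes the concentration required for complete inhibition of growth.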

Assays:
Experiment in all cases: inhibition of tumour cell growth, NCI panel, 48 h
A549 NSCLC = test system: A549 NSCLC
RPMI-8226 leukemia = test system: RPMI-8226 leukemia
KM20L2 colon = test system: KM20L2 colon
SNB-19 CNS = test system: SNB-19 CNS
SNB-78 CNS = test system: SNB-78 CNS
HOP-92 NSCLC = test system: HOP-92 NSCLC
EKVX NSCLC = test system: EKVX NSCLC
HCT-15 colon = test system: HCT-15 colon
786-0 renal = test system: 786-0 renal
SW-620 colon = test system: SW-620 colon
UO-31 renal = test system: UO-31 renal
HCC-2998 colon = test system: HCC-2998 colon
SF-539 CNS = test system: SF-539 CNS
SN12C renal = test system: SN12C renal
CCRF-CEM leukemia = test system: CCRF-CEM leukemia
IGROV1 ovarian = test system: IGROV1 ovarian
TK-10 renal = test system: TK-10 renal
DMS 273 small cell lung = test system: DMS 273 small cell lung
NCI-H522 lung = test system: NCI-H522 lung
SK-MEL-5 melanoma = test system: SK-MEL-5 melanoma
HT29 colon = test system: HT29 colon
DLD-1 colon = test system: DLD-1 colon
NCI-H460 lung = test system: NCI-H460 lung
SK-MEL-2 melanoma = test system: SK-MEL-2 melanoma
XF 498 CNS = test system: XF 498 CNS
SK-OV-3 ovarian = test system: SK-OV-3 ovarian
SK-MEL-28 melanoma = test system: SK-MEL-28 melanoma
OVCAR-4 ovarian = test system: OVCAR-4 ovarian
HOP-18 NSCLC = test system: HOP-18 NSCLC
KM12 colon = test system: KM12 colon
OVCAR-5 ovarian = test system: OVCAR-5 ovarian
NCI-H226 lung = test system: NCI-H226 lung
LXFL 529 NSCLC = test system: LXFL 529 NSCLC
HL-60(TB) leukemia = test system: HL-60(TB) leukemia
UACC-257 melanoma = test system: UACC-257 melanoma
HCT-116 colon = test system: HCT-116 colon
OVCAR-8 ovarian = test system: OVCAR-8 ovarian
MALME-3M melanoma = test system: MALME-3M melanoma
M14 melanoma = test system: M14 melanoma
OVCAR-3 ovarian = test system: OVCAR-3 ovarian
SR leukemia = test system: SR leukemia
M19-MEL melanoma = test system: M19-MEL melanoma
RXF 393 renal = test system: RXF 393 renal
U251 CNS = test system: U251 CNS
SF-295 CNS = test system: SF-295 CNS
SNB-75 CNS = test system: SNB-75 CNS
ACHN renal = test system: ACHN renal
K-562 leukemia = test system: K-562 leukemia
UACC-62 melanoma = test system: UACC-62 melanoma
MOLT-4 leukemia = test system: MOLT-4 leukemia
NCI-H23 lung = test system: NCI-H23 lung
LOX IMVI melanoma = test system: LOX IMVI melanoma
COLO 205 colon = test system: COLO 205 colon
SF-268 CNS = test system: SF-268 CNS
HOP-62 NSCLC = test system: HOP-62 NSCLC
CAKI-1 renal = test system: CAKI-1 renal
A498 renal = test system: A498 renal
DMS 114 small cell lung = test system: DMS 114 small cell lung

Structure (SMILES): NC1=NS(=O)(=O)Nc2nc(-c3ccccc3)c(-c3ccccc3)nc21
- TGI (A549 NSCLC): > 100 µM
- TGI (RPMI-8226 leukemia): > 100 µM
- TGI (KM20L2 colon): > 100 µM
- TGI (SNB-19 CNS): > 100 µM
- TGI (SNB-78 CNS): > 100 µM
- TGI (HOP-92 NSCLC): > 100 µM
- TGI (EKVX NSCLC): > 100 µM
- TGI (HCT-15 colon): > 100 µM
- TGI (786-0 renal): > 100 µM
- TGI (SW-620 colon): > 100 µM
- TGI (UO-31 renal): > 100 µM
- TGI (HCC-2998 colon): > 100 µM
- TGI (SF-539 CNS): > 100 µM
- TGI (SN12C renal): > 100 µM
- TGI (CCRF-CEM leukemia): > 100 µM
- TGI (IGROV1 ovarian): > 100 µM
- TGI (TK-10 renal): > 100 µM
- TGI (DMS 273 small cell lung): > 100 µM
- TGI (NCI-H522 lung): > 100 µM
- TGI (SK-MEL-5 melanoma): > 100 µM
- TGI (HT29 colon): > 100 µM
- TGI (DLD-1 colon): > 100 µM
- TGI (NCI-H460 lung): > 100 µM
- TGI (SK-MEL-2 melanoma): > 100 µM
- TGI (XF 498 CNS): > 100 µM
- TGI (SK-OV-3 ovarian): > 100 µM
- TGI (SK-MEL-28 melanoma): > 100 µM
- TGI (OVCAR-4 ovarian): > 100 µM
- TGI (HOP-18 NSCLC): > 100 µM
- TGI (KM12 colon): > 100 µM
- TGI (OVCAR-5 ovarian): > 100 µM
- TGI (NCI-H226 lung): > 100 µM
- TGI (LXFL 529 NSCLC): > 100 µM
- TGI (HL-60(TB) leukemia): > 100 µM
- TGI (UACC-257 melanoma): > 100 µM
- TGI (HCT-116 colon): > 100 µM
- TGI (OVCAR-8 ovarian): > 100 µM
- TGI (MALME-3M melanoma): > 100 µM
- TGI (M14 melanoma): > 100 µM
- TGI (OVCAR-3 ovarian): > 100 µM
- TGI (SR leukemia): > 100 µM
- TGI (M19-MEL melanoma): > 100 µM
- TGI (RXF 393 renal): > 100 µM
- TGI (U251 CNS): > 100 µM
- TGI (SF-295 CNS): > 100 µM
- TGI (SNB-75 CNS): > 100 µM
- TGI (ACHN renal): > 100 µM
- TGI (K-562 leukemia): > 100 µM
- TGI (UACC-62 melanoma): > 100 µM
- TGI (MOLT-4 leukemia): > 100 µM
- TGI (NCI-H23 lung): > 100 µM
- TGI (LOX IMVI melanoma): > 100 µM
- TGI (COLO 205 colon): > 100 µM
- TGI (SF-268 CNS): > 100 µM

Structure (SMILES): O=c1c2c([nH]c3cc4c(cc13)OCO4)-c1ccccc1C2
- TGI (A549 NSCLC): > 100 µM
- TGI (RPMI-8226 leukemia): 48.2 µM
- TGI (KM20L2 colon): 36.7 µM
- TGI (SNB-19 CNS): > 100 µM
- TGI (SNB-78 CNS): > 100 µM
- TGI (HOP-92 NSCLC): 56.3 µM
- TGI (EKVX NSCLC): > 100 µM
- TGI (HCT-15 colon): > 100 µM
- TGI (786-0 renal): > 100 µM
- TGI (SW-620 colon): > 100 µM
- TGI (UO-31 renal): 86.1 µM
- TGI (HCC-2998 colon): 84.1 µM
- TGI (SF-539 CNS): 34.7 µM
- TGI (SN12C renal): 84.6 µM
- TGI (CCRF-CEM leukemia): 71.4 µM
- TGI (HOP-62 NSCLC): 52.4 µM
- TGI (IGROV1 ovarian): 49.7 µM
- TGI (TK-10 renal): 78.5 µM
- TGI (DMS 273 small cell lung): 42.3 µM
- TGI (NCI-H522 lung): 55.5 µM
- TGI (SK-MEL-5 melanoma): 29.6 µM
- TGI (HT29 colon): 33 µM
- TGI (DLD-1 colon): 58.7 µM
- TGI (NCI-H460 lung): 63.9 µM
- TGI (SK-MEL-2 melanoma): 28.9 µM
- TGI (XF 498 CNS): 49.4 µM
- TGI (SK-OV-3 ovarian): > 100 µM
- TGI (SK-MEL-28 melanoma): 59.9 µM
- TGI (OVCAR-4 ovarian): > 100 µM
- TGI (HOP-18 NSCLC): 68.1 µM
- TGI (KM12 colon): 42.8 µM
- TGI (NCI-H226 lung): 86.7 µM
- TGI (LXFL 529 NSCLC): 63.7 µM
- TGI (HL-60(TB) leukemia): 70.1 µM
- TGI (CAKI-1 renal): > 100 µM
- TGI (HCT-116 colon): 37.4 µM
- TGI (OVCAR-8 ovarian): > 100 µM
- TGI (MALME-3M melanoma): 62.9 µM
- TGI (M14 melanoma): 46.5 µM
- TGI (OVCAR-3 ovarian): 51.6 µM
- TGI (SR leukemia): 56.1 µM
- TGI (RXF 393 renal): 34.2 µM
- TGI (U251 CNS): 35.6 µM
- TGI (SF-295 CNS): 84.8 µM
- TGI (ACHN renal): 53.8 µM
- TGI (K-562 leukemia): > 100 µM
- TGI (UACC-62 melanoma): 32.3 µM
- TGI (MOLT-4 leukemia): 82 µM
- TGI (NCI-H23 lung): 67.5 µM
- TGI (LOX IMVI melanoma): 31.7 µM
- TGI (COLO 205 colon): 31.5 µM
- TGI (SF-268 CNS): > 100 µM

Structure (SMILES): COc1ccc(/C(Cl)=C(\C=O)c2ccc(Cl)c(Cl)c2)cc1
- TGI (RPMI-8226 leukemia): 8.05 µM
- TGI (KM20L2 colon): 24 µM
- TGI (SNB-19 CNS): 30.1 µM
- TGI (SNB-78 CNS): 49 µM
- TGI (HOP-92 NSCLC): 24.3 µM
- TGI (EKVX NSCLC): 37.9 µM
- TGI (HCT-15 colon): 20.4 µM
- TGI (SW-620 colon): 19.3 µM
- TGI (UO-31 renal): 26.8 µM
- TGI (SF-539 CNS): 22.2 µM
- TGI (SN12C renal): 29.2 µM
- TGI (CCRF-CEM leukemia): 30.2 µM
- TGI (HOP-62 NSCLC): 27.2 µM
- TGI (IGROV1 ovarian): 33.7 µM
- TGI (TK-10 renal): 32.5 µM
- TGI (DMS 273 small cell lung): 32.8 µM
- TGI (A498 renal): 35.6 µM
- TGI (NCI-H522 lung): 7.76 µM
- TGI (SK-MEL-5 melanoma): 25.8 µM
- TGI (HT29 colon): 15.5 µM
- TGI (DLD-1 colon): 25.5 µM
- TGI (NCI-H460 lung): 19 µM
- TGI (SK-MEL-2 melanoma): 15.5 µM
- TGI (XF 498 CNS): 24.3 µM
- TGI (SK-OV-3 ovarian): 55 µM
- TGI (SK-MEL-28 melanoma): 31 µM
- TGI (HOP-18 NSCLC): 28.3 µM
- TGI (NCI-H226 lung): 36.4 µM
- TGI (LXFL 529 NSCLC): 20.4 µM
- TGI (HL-60(TB) leukemia): 23.9 µM
- TGI (CAKI-1 renal): 23 µM
- TGI (DMS 114 small cell lung): 18 µM
- TGI (HCT-116 colon): 14.1 µM
- TGI (OVCAR-8 ovarian): 32.3 µM
- TGI (MALME-3M melanoma): 34.1 µM
- TGI (M14 melanoma): 38 µM
- TGI (OVCAR-3 ovarian): 31.9 µM
- TGI (M19-MEL melanoma): 28.2 µM
- TGI (U251 CNS): 18.4 µM
- TGI (SF-295 CNS): 22 µM
- TGI (SNB-75 CNS): 7.87 µM
- TGI (ACHN renal): 20 µM
- TGI (K-562 leukemia): > 100 µM
- TGI (UACC-62 melanoma): 26.7 µM
- TGI (MOLT-4 leukemia): 7.36 µM
- TGI (LOX IMVI melanoma): 13.9 µM
- TGI (COLO 205 colon): 36.6 µM
- TGI (SF-268 CNS): 24.9 µM
